# How the values were obtained:
# [1] = target: GST-Flk1 (UniProt P35918); assay: GST-FLK-1 bioassay (bio flkGST); format: biochemical
# Outline: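 ELISA with Sf9-expressed GST-Flk1cd (5 ng/well) phosphorylating plate-coated poly(Glu,Tyr) 4:1 in Hepes pH 7.5 with MnCl2 and ATP (2 μM as 4× stock), 15 min at room temperature; EDTA stop. Phosphotyrosine detected with PY99-HRP and ABTS at 410 nm.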
# [2] = target: T1, EGF Receptor (Homo sapiens, UniProt P00533); assay: bio EGF (EGF Receptor ELISA); format: biochemical
# T1 construct: expressed in transfected cells; host or cells: NIH 3T3/C7 (mouse fibroblasts engineered to express human EGF-R)
# Outline: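 Cells engineered to express human EGFR, seeded in 0.5% serum for ~40 h, then exposed to drug (stock diluted to 1:200 final, 1% DMSO) before 5 min EGF stimulation at 25 nM final. Lysates captured on anti-EGFR-coated plates, and phosphotyrosine detected by anti-pTyr/HRP ELISA at 410 nm. Percent inhibition calculated relative to control wells after negative-control subtraction.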
# T1 sequence (P00533 25-1210): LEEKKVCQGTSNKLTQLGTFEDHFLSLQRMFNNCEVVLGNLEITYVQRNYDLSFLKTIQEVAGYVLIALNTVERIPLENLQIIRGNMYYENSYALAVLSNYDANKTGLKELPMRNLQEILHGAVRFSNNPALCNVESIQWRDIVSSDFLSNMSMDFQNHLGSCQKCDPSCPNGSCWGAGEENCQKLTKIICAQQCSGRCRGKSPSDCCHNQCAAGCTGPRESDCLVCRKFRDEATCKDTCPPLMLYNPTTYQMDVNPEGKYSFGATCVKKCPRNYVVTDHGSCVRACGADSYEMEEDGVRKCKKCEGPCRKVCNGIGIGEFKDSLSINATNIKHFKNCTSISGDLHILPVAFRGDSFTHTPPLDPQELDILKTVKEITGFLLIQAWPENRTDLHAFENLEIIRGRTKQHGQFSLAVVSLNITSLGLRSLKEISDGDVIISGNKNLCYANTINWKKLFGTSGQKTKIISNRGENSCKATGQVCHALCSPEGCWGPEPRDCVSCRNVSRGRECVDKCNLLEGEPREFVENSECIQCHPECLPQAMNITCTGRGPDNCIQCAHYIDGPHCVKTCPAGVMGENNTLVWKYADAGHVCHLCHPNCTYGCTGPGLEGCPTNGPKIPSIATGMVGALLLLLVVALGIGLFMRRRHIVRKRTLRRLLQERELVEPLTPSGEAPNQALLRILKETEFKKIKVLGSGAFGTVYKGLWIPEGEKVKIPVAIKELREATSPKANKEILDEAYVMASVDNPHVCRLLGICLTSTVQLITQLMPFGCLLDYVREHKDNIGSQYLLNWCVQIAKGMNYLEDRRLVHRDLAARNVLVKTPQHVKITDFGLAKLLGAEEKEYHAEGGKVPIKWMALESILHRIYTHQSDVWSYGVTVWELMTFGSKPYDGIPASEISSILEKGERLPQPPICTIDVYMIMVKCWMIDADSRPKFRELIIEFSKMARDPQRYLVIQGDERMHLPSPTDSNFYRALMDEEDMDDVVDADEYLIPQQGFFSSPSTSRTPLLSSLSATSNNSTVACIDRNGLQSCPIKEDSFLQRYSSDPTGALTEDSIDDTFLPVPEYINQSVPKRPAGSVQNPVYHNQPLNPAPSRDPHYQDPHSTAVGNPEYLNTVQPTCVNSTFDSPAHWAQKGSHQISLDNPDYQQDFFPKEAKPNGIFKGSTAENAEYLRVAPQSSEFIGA
smiles,measurement,setting,value
"O=C1Nc2ccc(S(=O)(=O)Nc3cccnc3)cc2C1=Cc1cc2cc(OCCN3CCCC3)ccc2[nH]1 [IN-045, 2-oxo-3-[5-(2-pyrrolidin-1-yl-ethoxy)-1H-indol-2-ylmethylene]-2,3-dihydro-1H-indole-5-sulfonic acid pyridin-3-ylamide]",IC50,[1],0.12 µM
same,IC50,[2],8.02 µM
"O=C1Nc2ccc(S(=O)(=O)N3CCc4ccccc43)cc2C1=Cc1cc2cc(OCCN3CCCC3)ccc2[nH]1 [IN-046, 5-(2,3-dihydro-indole-1-sulfonyl)-3-[5-(2-pyrrolidin-1-yl-ethoxy)-1H-indol-2-ylmethylene]-1,3-dihydro-indol-2-one]",IC50,[1],1.05 µM
same,IC50,[2],1.23 µM
"O=C1Nc2ccc(S(=O)(=O)Nc3cccc(Cl)c3)cc2C1=Cc1cc2cc(OCCN3CCCC3)ccc2[nH]1 [IN-047, 2-oxo-3-[5-(2-pyrrolidin-1-yl-ethoxy)-1H-indol-2-ylmethylene]-2,3-dihydro-1H-indole-5-sulfonic acid (3-chloro-phenyl)-amide]",IC50,[1],0.39 µM
same,IC50,[2],0.87 µM
"CN(c1cccc(Cl)c1)S(=O)(=O)c1ccc2c(c1)C(=Cc1cc3cc(OCCN4CCCC4)ccc3[nH]1)C(=O)N2 [IN-048, 2-oxo-3-[5-(2-pyrrolidin-1-yl-ethoxy)-1H-indol-2-ylmethylene]-2,3-dihydro-1H-indole-5-sulfonic acid (3-chloro-phenyl)-methyl-amide]",IC50,[1],1.16 µM
same,IC50,[2],2.13 µM
"O=C1Nc2ccc(S(=O)(=O)Nc3ccc(Cl)cc3F)cc2C1=Cc1cc2cc(OCCN3CCCC3)ccc2[nH]1 [IN-049, 2-oxo-3-[5-(2-pyrrolidin-1-yl-ethoxy)-1H-indol-2-ylmethylene]-2,3-dihydro-1H-indole-5-sulfonic acid (4-chloro-2-fluoro-phenyl)-amide]",IC50,[1],0.13 µM
same,IC50,[2],4.38 µM
"O=C1Nc2ccc(S(=O)(=O)N3CCCc4ccccc43)cc2C1=Cc1cc2cc(OCCN3CCCC3)ccc2[nH]1 [IN-050, 5-(3,4-dihydro-2H-quinoline-1-sulfonyl)-3-[5-(2-pyrrolidin-1-yl-ethoxy)-1H-indol-2-ylmethylene]-1,3-dihydro-indol-2-one]",IC50,[1],0.71 µM
same,IC50,[2],2.4 µM
"O=C1Nc2ccc(S(=O)(=O)N3CCc4ccccc4C3)cc2C1=Cc1cc2cc(OCCN3CCCC3)ccc2[nH]1 [IN-051, 5-(3,4-dihydro-1H-isoquinoline-2-sulfonyl)-3-[5-(2-pyrrolidin-1-yl-ethoxy)-1H-indol-2-ylmethylene]-1,3-dihydro-indol-2-one]",IC50,[1],0.37 µM
same,IC50,[2],3.52 µM
"O=C1Nc2ccc(S(=O)(=O)N3CCc4cc(Br)ccc43)cc2C1=Cc1cc2cc(OCCN3CCCC3)ccc2[nH]1 [IN-052, 5-(5-bromo-2,3-dihydro-indole-1-sulfonyl)-3-[5-(2-pyrrolidin-1-yl-ethoxy)-1H-indol-2-ylmethylene]-1,3-dihydro-indol-2-one]",IC50,[1],1.02 µM
same,IC50,[2],1.16 µM
"CNS(=O)(=O)c1ccc2c(c1)C(=Cc1cc3cc(OCCN4CCOCC4)ccc3[nH]1)C(=O)N2 [IN-053, 3-[5-(2-morpholin-4-yl-ethoxy)-1H-indol-2-ylmethylene]-2-oxo-2,3-dihydro-1H-indole-5-sulfonic acid methylamide]",IC50,[1],1.21 µM
same,IC50,[2],15.2 µM
"CN(C)S(=O)(=O)c1ccc2c(c1)C(=Cc1cc3cc(OCCN4CCOCC4)ccc3[nH]1)C(=O)N2 [IN-054, 3-[5-(2-morpholin-4-yl-ethoxy)-1H-indol-2-ylmethylene]-2-oxo-2,3-dihydro-1H-indole-5-sulfonic acid dimethylamide]",IC50,[1],4.28 µM
same,IC50,[2],> 20 µM
"CC(C)NS(=O)(=O)c1ccc2c(c1)C(=Cc1cc3cc(OCCN4CCOCC4)ccc3[nH]1)C(=O)N2 [IN-055, 3-[5-(2-morpholin-4-yl-ethoxy)-1H-indol-2-ylmethylene]-2-oxo-2,3-dihydro-1H-indole-5-sulfonic acid isopropylamide]",IC50,[1],1.5 µM
same,IC50,[2],3.5 µM
"O=C1Nc2ccc(S(=O)(=O)Nc3ccccc3)cc2C1=Cc1cc2cc(OCCN3CCOCC3)ccc2[nH]1 [IN-056, 3-[5-(2-morpholin-4-yl-ethoxy)-1H-indol-2-ylmethylene]-2-oxo-2,3-dihydro-1H-indole-5-sulfonic acid phenylamide]",IC50,[1],9.96 µM
same,IC50,[2],15.5 µM
"O=C1Nc2ccc(S(=O)(=O)Nc3cccnc3)cc2C1=Cc1cc2cc(OCCN3CCOCC3)ccc2[nH]1 [IN-057, 3-[5-(2-morpholin-4-yl-ethoxy)-1H-indol-2-ylmethylene]-2-oxo-2,3-dihydro-1H-indole-5-sulfonic acid pyridin-3-ylamide]",IC50,[1],> 20 µM
same,IC50,[2],> 20 µM
"O=C1Nc2ccc(S(=O)(=O)N3CCc4ccccc43)cc2C1=Cc1cc2cc(OCCN3CCOCC3)ccc2[nH]1 [IN-058, 5-(2,3-dihydro-indole-1-sulfonyl)-3-[5-(2-morpholin-4-yl-ethoxy)-1H-indol-2-ylmethylene]-1,3-dihydro-indol-2-one]",IC50,[1],8.49 µM
same,IC50,[2],> 20 µM
"O=C1Nc2ccc(S(=O)(=O)Nc3cccc(Cl)c3)cc2C1=Cc1cc2cc(OCCN3CCOCC3)ccc2[nH]1 [IN-059, 3-[5-(2-morpholin-4-yl-ethoxy)-1H-indol-2-ylmethylene]-2-oxo-2,3-dihydro-1H-indole-5-sulfonic acid (3-chloro-phenyl)-amide]",IC50,[1],0.63 µM
same,IC50,[2],> 20 µM
"CN(c1cccc(Cl)c1)S(=O)(=O)c1ccc2c(c1)C(=Cc1cc3cc(OCCN4CCOCC4)ccc3[nH]1)C(=O)N2 [IN-060, 3-[5-(2-morpholin-4-yl-ethoxy)-1H-indol-2-ylmethylene]-2-oxo-2,3-dihydro-1H-indole-5-sulfonic acid (3-chloro-phenyl)-methyl-amide]",IC50,[1],8.55 µM
same,IC50,[2],> 20 µM
"O=C1Nc2ccc(S(=O)(=O)Nc3ccc(Cl)cc3F)cc2C1=Cc1cc2cc(OCCN3CCOCC3)ccc2[nH]1 [IN-061, 3-[5-(2-morpholin-4-yl-ethoxy)-1H-indol-2-ylmethylene]-2-oxo-2,3-dihydro-1H-indole-5-sulfonic acid (4-chloro-2-fluoro-phenyl)-amide]",IC50,[1],0.39 µM
same,IC50,[2],4.46 µM
"O=C1Nc2ccc(S(=O)(=O)N3CCCc4ccccc43)cc2C1=Cc1cc2cc(OCCN3CCOCC3)ccc2[nH]1 [IN-062, 5-(3,4-dihydro-2H-quinoline-1-sulfonyl)-3-[5-(2-morpholin-4-yl-ethoxy)-1H-indol-2-ylmethylene]-1,3-dihydro-indol-2-one]",IC50,[1],15.4 µM
same,IC50,[2],> 20 µM
"O=C1Nc2ccc(S(=O)(=O)N3CCc4ccccc4C3)cc2C1=Cc1cc2cc(OCCN3CCOCC3)ccc2[nH]1 [IN-063, 5-(3,4-dihydro-1H-isoquinoline-2-sulfonyl)-3-[5-(2-morpholin-4-yl-ethoxy)-1H-indol-2-ylmethylene]-1,3-dihydro-indol-2-one]",IC50,[1],14.3 µM
same,IC50,[2],> 20 µM
"O=C1Nc2ccc(S(=O)(=O)N3CCc4cc(Br)ccc43)cc2C1=Cc1cc2cc(OCCN3CCOCC3)ccc2[nH]1 [IN-064, 5-(5-bromo-2,3-dihydro-indole-1-sulfonyl)-3-[5-(2-morpholin-4-yl-ethoxy)-1H-indol-2-ylmethylene]-1,3-dihydro-indol-2-one]",IC50,[1],17.8 µM
same,IC50,[2],> 20 µM
"Cc1[nH]c2ccccc2c1C=C1C(=O)Nc2ccc(S(N)(=O)=O)cc21 [IN-066, 3-(2-methyl-1H-indol-3-ylmethylene)-2-oxo-2,3-dihydro-1H-indole-5-sulfonic acid amide]",IC50,[1],> 20 µM
same,IC50,[2],> 100 µM
"NS(=O)(=O)c1ccc2c(c1)C(=Cc1ccc3[nH]ccc3c1)C(=O)N2 [IN-067, 3-(1H-indol-5-ylmethylene)-2-oxo-2,3-dihydro-1H-indole-5-sulfonic acid amide]",IC50,[1],3.99 µM
same,IC50,[2],> 100 µM
"CNS(=O)(=O)c1ccc2c(c1)C(=Cc1c[nH]c3ccccc13)C(=O)N2 [IN-068, 3-(1H-indol-3-ylmethylene)-2-oxo-2,3-dihydro-1H-indole-5-sulfonic acid methylamide]",IC50,[1],> 20 µM
same,IC50,[2],> 100 µM
"CNS(=O)(=O)c1ccc2c(c1)C(=Cc1c(C)[nH]c3ccccc13)C(=O)N2 [IN-069, 3-(2-methyl-1H-indol-3-ylmethylene)-2-oxo-2,3-dihydro-1H-indole-5-sulfonic acid methylamide]",IC50,[1],12.8 µM
same,IC50,[2],> 100 µM
"CNS(=O)(=O)c1ccc2c(c1)C(=Cc1ccc3[nH]ccc3c1)C(=O)N2 [IN-070, 3-(1H-indol-5-ylmethylene)-2-oxo-2,3-dihydro-1H-indole-5-sulfonic acid methylamide]",IC50,[1],2.33 µM
same,IC50,[2],> 100 µM
"CNS(=O)(=O)c1ccc2c(c1)C(=Cc1cc3ccccc3[nH]1)C(=O)N2 [IN-071, 3-(1H-indol-2-ylmethylene)-2-oxo-2,3-dihydro-1H-indole-5-sulfonic acid methylamide]",IC50,[1],11.5 µM
same,IC50,[2],22 µM
"CN(C)S(=O)(=O)c1ccc2c(c1)C(=Cc1c[nH]c3ccccc13)C(=O)N2 [IN-072, 3-(1H-indol-3-ylmethylene)-2-oxo-2,3-dihydro-1H-indole-5-sulfonic acid dimethylamide]",IC50,[1],> 20 µM
same,IC50,[2],> 100 µM
"Cc1[nH]c2ccccc2c1C=C1C(=O)Nc2ccc(S(=O)(=O)N(C)C)cc21 [IN-073, 3-(2-methyl-1H-indol-3-ylmethylene)-2-oxo-2,3-dihydro-1H-indole-5-sulfonic acid dimethylamide]",IC50,[1],> 20 µM
same,IC50,[2],> 100 µM
"CN(C)S(=O)(=O)c1ccc2c(c1)C(=Cc1ccc3[nH]ccc3c1)C(=O)N2 [IN-074, 3-(1H-indol-5-ylmethylene)-2-oxo-2,3-dihydro-1H-indole-5-sulfonic acid dimethylamide]",IC50,[1],1.58 µM
same,IC50,[2],> 100 µM
